Data reported in paper PMC4116524, “A virtual screen identified C96 as a novel inhibitor of phosphatidylinositol 3-kinase that displays potent preclinical activity against multiple myeloma in vitro and in vivo” (Oncotarget, 2014).

Experiments:
Assay type in all cases: cell-based
[1] = tested on: AKT phosphorylation in LP1 and JJN3 cells; test: IGF-1-stimulated AKT phosphorylation, immunoblotting (Figure 3A); settings: 100 μM, 2 hrs, IGF-1 15 min
Experimental: (§1) To elucidate this specificity, we first evaluated its effects on IGF-1R because IGF-1R as a receptor tyrosine kinase activates PI3K in the presence of IGF-1. To exclude the potential effects of C96 on IGF-1 signaling, LP1 and JJN3 cells were starved overnight followed by C96 or S14161 treatment for 2 hrs, and IGF-1 stimulation for 15 min. As expected, IGF-1 triggered AKT phosphorylation but it was suppressed by both C96 and the proven PI3K inhibitor S14161 without affecting total AKT expression (Figure 3A). […] Next, we evaluated other kinases including non-receptor kinase c-Src and a PI3K parallel kinase ERK which transduces external cellular signals. Both LP1 and JJN3 cells were treated with C96 at increasing concentrations that inhibited AKT and mTOR activation (Figure 2C).
(§2) Figure 3 C96 inhibits AKT but not IGF-1R, ERK or c-Src kinase activation (A) LP1 and JJN3 cells were starved overnight, then treated with 100 (μM of C96 or S14161 for 2 hrs, followed by IGF-1 (100 ng/mL) for 15 min. After incubation, cells were harvested and the expression of p-AKT, p-IGF-1R, total AKT (T-AKT), and IGF-1R proteins were detected by immunoblotting. (B) LP1 and JJN3 were treated with C96 at indicated concentrations for 24 hrs followed by immunoblotting assay for the expression of p-Src, c-Src, p-ERK, and ERK. GAPDH was used as a loading control. […]

[2] = tested on: IGF-1R phosphorylation in LP1 and JJN3 cells; test: IGF-1-induced IGF-1R phosphorylation, immunoblotting; settings: 100 μM, 2 hrs, IGF-1 15 min
Experimental: as §1, §2

[3] = tested on: ERK phosphorylation in LP1 and JJN3 cells; test: ERK phosphorylation, immunoblotting; settings: increasing concentrations, 24 hrs
Experimental: as §1, §2

[4] = tested on: phosphorylation of mTOR, p70S6K and 4E-BP1 in LP1, OPM2 and JJN3 cells; test: mTOR signaling pathway, immunoblotting; settings: LP1, OPM2, JJN3, 24 hrs, concentration-dependent
Experimental: Figure 2 C96 inhibits AKT and mTOR signaling (A) LP1 and OPM2 were starved overnight, then treated with C96 at the indicated concentrations, or 100 μM of S14161 for 2 hrs, followed by IGF-1 (100 ng/mL) for 15 min. Cells were collected for the analysis of the expression of p-AKT and total AKT (T-AKT) by immunoblotting. […]
The PI3K/AKT plays a critical role in regulating a myriad of downstream effectors, of which the most prominent ones are mTOR/p70S6K/4E-BP1. […] To examine whether PI3K inhibition led to deregulation of the mTOR signaling pathway, we further measured the changes of mTOR, p70S6K and 4E-BP1 in MM cell lines LP1, OPM2, and JJN3 in the presence of C96.
Cells were treated with or without C96 for 24 hrs before being applied to lysate preparation in a lysis buffer (50 mM Tris-HCI, pH 7.4, 1% NP-40, 0.5% Na-deoxycholate, and 0.1% SDS, 150 mM NaCl, 2 mM EDTA, 2 mM Na3VO4, and 5 mM NaF). […] All immunoblotting signals were further analyzed with Quality One Quality One software (Bio-Rad, Berkeley, CA, USA).

[5] = tested on: LP1, OPM2 and JJN3 cells; test: MM cell growth after starvation/IGF-1 stimulation (MTT); settings: 0.5% FBS 12 hrs, IGF-1 100 ng/mL, 24 hrs
Text: Next, we evaluated the effects of C96 on MM cell growth by measuring viable cells after starvation/IGF-1 stimulation in the presence of C96. As shown in Supplemental Figure 2A, IGF-1 stimulated MM cell growth, but it was suppressed by C96. We also examined the effects of C96 on MM cell migration upon IGF-1 stimulation.
MM cells were dispensed in 96-well plates at a density of 8×10^3 cells per well and treated with increasing concentrations of C96 for 72 hrs, and the growth inhibitory effect of C96 on MM cells was assessed by an MTT assay as reported previously. To show the effect of C96 on cell growth in the presence of growth factor IGF-1, MM cells were first maintained in IMDM media containing 0.5% FBS for 12 hrs, followed by C96 treatment alone or in combination with 100 ng/mL of IGF-1. Cells were then incubated for another 24 hrs, relative cell proliferation was analyzed by an MTT assay.
Supplementary Figure S2: C96 inhibits MM cell proliferation and migration in the presence of IGF-1. […] Cells were then incubated for another 24 hr, cell number was analyzed using MTT staining. […] Cells were loaded onto the upper chamber of a transwell, and the lower chamber was filled with IMDM containing agonist IGF-1.After 6 hrs, cells migrating into the lower chamber were counted using a hemacytometer. […]

`O=C1NC(=O)C(=CC=Cc2cccs2)C(=O)N1` [C96, 5-(3-(2-thienyl)-2-propen-1-ylidene)-2,4,6(1H,3H,5H)-pyrimidinetrione] was tested, and the “AKT phosphorylation triggered by IGF-1” value [1] was “suppressed”, the “IGF-1R phosphorylation induced by IGF-1” value [2] was “not affected” and the “phosphorylation level of ERK” value [3] was “did not decrease”. The “phosphorylation levels of mTOR, p70S6K and 4E-BP1” value [4] was “downregulated” and the “IGF-1 stimulated MM cell growth” value [5] was “suppressed”.
